Experimental data reported in publication PMC7413254 (Nature Communications, 2020).
Where two headings read alike, the source gives them in different places.

What was measured:
non-expressing oocytes = test: cells; type: cell-based, Xenopus laevis; settings: Xenopus laevis, total [3H]CQ transport; for inhibition at 500 µM: [test solute] = 0.5 mM; for inhibition at 1000 µM: [test solute] = 1 mM; for inhibition at 2000 µM: [test solute] = 2 mM
Outline: (§1)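 ND96, pH 5.5, 1.5 h, 27.5 °C; uptake direction acidic outside → oocyte cytosol, mimicking efflux from digestive vacuole. Ice-cold wash stop, 10% SDS lysis, scintillation counting. Ten oocytes/treatment, ≥4 independent experiments.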

PfCRT^3D7 = PfCRT^3D7 (Plasmodium falciparum, UniProt Q8IBZ9); test: cell-based; type: cell-based; settings: total [3H]CQ transport; for inhibition at 500 µM: [test solute] = 0.5 mM; for inhibition at 1000 µM: [test solute] = 1 mM; for inhibition at 2000 µM: [test solute] = 2 mM
Outline: as §1

PfCRT^Dd2 = PfCRT^Dd2 (Plasmodium falciparum, UniProt Q9N623, A220S/I356T/K76T/M74I/N326S/N75E/Q271E/R371I); test: [3H]CQ uptake into Xenopus oocytes, cis-inhibition by unlabelled solute; type: cell-based
Outline: as §1

PfCRT^Ecu1110 = PfCRT^Ecu1110 (Plasmodium falciparum, UniProt Q9N623, A220S/I356L/K76T/N326D); test: as above; type: cell-based
Outline: as §1

[1] = Oocyte, mean ± SEM, SEM, read-out: Uptake of [3H]CQ (% PfCRTDd2 control), cis-inhibition, non-expressing oocytes
[2] = non-expressing oocytes, normalised to the oocyte type control, read-out: Uptake of [3H]CQ (% non-expressing oocyte control), cis-inhibition
[3] = PfCRT3D7 oocytes, normalised to the oocyte type control, read-out: Uptake of [3H]CQ (% PfCRT3D7 control), cis-inhibition
[4] = mean ± SEM, SEM, read-out: Uptake of [3H]CQ (% PfCRTDd2 control), cis-inhibition, PfCRT3D7
[5] = read-out: PfCRT-mediated [3H]CQ transport, cis-inhibition (% PfCRTDd2 control)
[6] = read-out: Uptake of [3H]CQ (% PfCRTDd2 control), cis-inhibition
[7] = read-out: Uptake of [3H]CQ (% PfCRTDd2 control), cis-inhibition, PfCRTDd2, SEM
[8] = read-out: [3H]CQ transport (% PfCRTDd2 control), cis-inhibition, PfCRTDd2, SEM
[9] = read-out: PfCRT-mediated [3H]CQ transport, cis-inhibition (% PfCRTEcu1110 control)
[10] = read-out: Uptake of [3H]CQ (% PfCRTDd2 control), cis-inhibition, PfCRTEcu1110, SEM
[11] = read-out: Uptake of [3H]CQ (% PfCRTEcu1110 control), cis-inhibition

Chain of PfCRT^Dd2 (Q9N623 whole entry A220S/I356T/K76T/M74I/N326S/N75E/Q271E/R371I): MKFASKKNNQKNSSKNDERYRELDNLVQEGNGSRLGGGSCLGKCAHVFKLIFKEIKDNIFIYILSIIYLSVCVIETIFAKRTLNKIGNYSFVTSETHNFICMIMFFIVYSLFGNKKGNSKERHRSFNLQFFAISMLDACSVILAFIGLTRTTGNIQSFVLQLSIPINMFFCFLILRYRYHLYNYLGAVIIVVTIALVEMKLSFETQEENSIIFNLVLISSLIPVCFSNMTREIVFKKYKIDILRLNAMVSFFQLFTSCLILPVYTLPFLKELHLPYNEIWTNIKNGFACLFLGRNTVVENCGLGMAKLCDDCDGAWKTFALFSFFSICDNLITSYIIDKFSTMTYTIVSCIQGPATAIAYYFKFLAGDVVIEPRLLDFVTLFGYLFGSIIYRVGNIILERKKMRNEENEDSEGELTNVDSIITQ
Chain of PfCRT^Ecu1110 (Q9N623 whole entry A220S/I356L/K76T/N326D): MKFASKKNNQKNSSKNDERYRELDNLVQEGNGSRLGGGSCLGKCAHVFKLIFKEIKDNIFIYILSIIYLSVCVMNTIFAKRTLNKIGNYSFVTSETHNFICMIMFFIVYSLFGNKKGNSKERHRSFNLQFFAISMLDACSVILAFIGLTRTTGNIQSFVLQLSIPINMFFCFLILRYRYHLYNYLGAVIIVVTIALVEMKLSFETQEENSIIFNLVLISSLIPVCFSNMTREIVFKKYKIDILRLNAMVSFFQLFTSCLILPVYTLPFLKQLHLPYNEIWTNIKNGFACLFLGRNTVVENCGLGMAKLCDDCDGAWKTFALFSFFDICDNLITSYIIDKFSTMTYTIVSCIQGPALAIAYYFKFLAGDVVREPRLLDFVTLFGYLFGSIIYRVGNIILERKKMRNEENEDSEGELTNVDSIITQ
Chain of PfCRT^3D7 (Q8IBZ9 59-398): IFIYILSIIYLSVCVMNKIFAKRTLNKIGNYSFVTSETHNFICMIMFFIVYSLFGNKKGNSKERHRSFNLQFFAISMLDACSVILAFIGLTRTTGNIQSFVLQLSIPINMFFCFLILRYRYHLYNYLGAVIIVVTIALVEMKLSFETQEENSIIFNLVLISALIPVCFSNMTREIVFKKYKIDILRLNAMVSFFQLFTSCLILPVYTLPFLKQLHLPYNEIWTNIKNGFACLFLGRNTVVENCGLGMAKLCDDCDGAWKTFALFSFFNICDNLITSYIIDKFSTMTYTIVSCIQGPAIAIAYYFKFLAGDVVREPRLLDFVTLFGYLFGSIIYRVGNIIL

Q: How did the inhibition at 500 µM (non-expressing oocytes; [1]) turn out when N=C(N)NCCC[C@H](N)C(=O)O [L-arginine] was run?
A: 2.5 ± 0.06%

Q: What about the inhibition at 1000 µM (non-expressing oocytes; [1]) of the same molecule?
A: 2.7 ± 0.06%

Q: What about the inhibition at 2000 µM (non-expressing oocytes; [1]) of the same molecule?
A: 2.1 ± 0.1%

Q: What about the inhibition at 500 µM (non-expressing oocytes; [2]) of the same molecule?
A: 99 ± 3.7%

Q: And the inhibition at 1000 µM (non-expressing oocytes; [2])?
A: 99 ± 2.6%

Q: And the inhibition at 2000 µM (non-expressing oocytes; [2])?
A: 98 ± 5.2%

Q: And the inhibition at 500 µM (PfCRT^3D7; [3])?
A: 100 ± 4.2%

Q: And the inhibition at 1000 µM (PfCRT^3D7; [3])?
A: 99 ± 5.7%

Q: And the inhibition at 2000 µM (PfCRT^3D7; [3])?
A: 100 ± 5.3%

Q: And the inhibition at 500 µM (PfCRT^3D7; [4])?
A: 2.4 ± 0.07%

Q: And the inhibition at 1000 µM (PfCRT^3D7; [4])?
A: 2.9 ± 0.05%

Q: What about the inhibition at 2000 µM (PfCRT^3D7; [4]) of the same molecule?
A: 3.3 ± 0.03%

Q: What about the inhibition at 500 µM (PfCRT^Dd2; [5]) of the same molecule?
A: 99 ± 3.2%

Q: And the inhibition at 1000 µM (PfCRT^Dd2; [5])?
A: 99 ± 2.6%

Q: What about the inhibition at 2000 µM (PfCRT^Dd2; [5]) of the same molecule?
A: 95 ± 2.4%

Q: And the inhibition at 500 µM (PfCRT^Dd2; [6])?
A: 101 ± 4.8%

Q: And the inhibition at 1000 µM (PfCRT^Dd2; [6])?
A: 101 ± 5.8%

Q: And the inhibition at 500 µM (PfCRT^Dd2; [7])?
A: 101 ± 4.8%

Q: What about the inhibition at 1000 µM (PfCRT^Dd2; [7]) of the same molecule?
A: 101 ± 5.8%

Q: And the inhibition at 2000 µM (PfCRT^Dd2; [7])?
A: 98 ± 3.5%

Q: And the inhibition at 500 µM (PfCRT^Dd2; [8])?
A: 99 ± 3.2%

Q: And the inhibition at 1000 µM (PfCRT^Dd2; [8])?
A: 99 ± 2.6%

Q: And the inhibition at 500 µM (PfCRT^Ecu1110; [9])?
A: 98 ± 2.5%

Q: And the inhibition at 1000 µM (PfCRT^Ecu1110; [9])?
A: 95 ± 3.5%

Q: What about the inhibition at 2000 µM (PfCRT^Ecu1110; [9]) of the same molecule?
A: 99 ± 1.6%

Q: And the inhibition at 500 µM (PfCRT^Ecu1110; [10])?
A: 33 ± 2.4%

Q: And the inhibition at 1000 µM (PfCRT^Ecu1110; [10])?
A: 32 ± 1%

Q: And the inhibition at 2000 µM (PfCRT^Ecu1110; [10])?
A: 33 ± 1.4%

Q: What about the inhibition at 500 µM (PfCRT^Ecu1110; [11]) of the same molecule?
A: 100 ± 4.3%

Q: What about the inhibition at 1000 µM (PfCRT^Ecu1110; [11]) of the same molecule?
A: 97 ± 6.2%

Q: And the inhibition at 2000 µM (PfCRT^Ecu1110; [11])?
A: 101 ± 3.6%
